Results reported in patent US20050276834A1, “Mole bait and systems and methods for making and using an improved mole bait” (priority 2004, published 2005).

System: moles
Assay: Mole bait article fed to moles, killing of moles
Type: in vivo
Conditions: bromethalin absorbed from a single mole bait article; oral consumption by mole
Protocol: In developing the mole bait article containing gelatin, sorbitol and glycerin according to the above-outlined exemplary embodiment, the applicants screened a large number of elastomers and plasticizers. This screening included determining an appropriate ratio of components by stretching the resultant mole bait article, where the length of the mole bait article was measured before, during and after stretching. This screening also included stretching the mole bait article until the mole bait article broke, thus allowing the tensile strength of the mole bait article to be determined. This screening included providing the mole bait article having the identified formula to moles and observing whether the moles would consume the resultant mole bait article. Finally, this screening included determining whether the mole bait article, when digested by the moles, is sufficiently digestible that a single mole bait article releases an effective amount of the active ingredient into the moles' systems.
In contrast, in various exemplary embodiments of the mole bait article according to this invention, the mole bait article is sufficiently digestible that a single mole bait article according to this invention, upon being consumed and digested, is able to release an effective dose of the active ingredient to the mole. […]

CN(c1c(Br)cc(Br)cc1Br)c1c([N+](=O)[O-])cc([N+](=O)[O-])cc1C(F)(F)F [Bromethalin] was tested, and the “dose received from a single mole bait article during its time in the mole's digestive system” value was “lethal dose from a single one of the mole bait articles”.
